How the values were obtained:
embryoid bodies = assay: Immunoperoxidase cytochemistry for insulin in suspended embryoid bodies; type: cell-based; details: retinoic acid days 3 to 7; suspension culture; day 32; versus control lacking primary antibody; FIG. 4
Protocol: Embryonic stem cell lines were cultured as described above for Examples 1-10 on gelatin coated Tissue Culture (TC) dishes without Mouse Embryonic Fibroblasts (MEF's) (with 1500 units/ml Lymphocyte Inhibitory Factor (LIF) in media) to remove MEF's from culture. The resulting stem cells were then differentiated as described above (with retinoic acid during treatment during days 3 to 7) except that the formed embryoid bodies were maintained in suspension for the duration of the experiment as opposed to being separated and adhered to TC dishes. All culturing from day 1 forward was performed in 25 millimolar (mM) glucose (high glucose) until after day 19, when it was changed to 5.5 millimolar glucose (physiological glucose).

embryonic stem cells = assay: RT-PCR analysis of insulin (INS) and amylase (AML) transcripts in embryonic stem cells differentiated with retinoic acid; type: cell-based; design: key to Abundance of Insulin RT-PCR Product (INS) / Abundance of Amylase RT-PCR Product (AML): +: Indicates relative abundance; −: No RT-PCR band observed
Protocol: Embryonic stem cell lines were cultured and spilt 1:8 every three days for 4 passages on gelatin coated Tissue Culture (TC) dishes without Mouse Embryonic Fibroblasts (MEF's) (with 1500 units/ml Lymphocyte Inhibitory Factor (LIF) in media) to remove MEF's from culture. The resulting stem cells were then differentiated as follows:
On day 1, the stem cells were treated with trypsin to break up some aggregation and then suspended in 1% Fetal Calf Serum (FCS) Media (without LIF). The stem cells were then allowed to self-aggregate into embryoid bodies in suspension culture in bacterial petri dishes. On day 3, the cells were given a fresh media change and then split among two bacterial petri dishes (sample and control). A solution containing 1 μM retinoic acid was intermixed with the sample and both the control (no retinoic acid) and the sample were allowed to sit at 37° C. Fresh media were supplied at day 5 (with fresh 1 μM retinoic acid for the treated sample). At day 7, fresh media was supplied for both, with no retinoic acid (retinoic acid only present from days 3 to 7).
Fresh media was supplied again on day 9. On […] the cells were again trypsinized and then placed into TC dishes with 10% FCS media (no LIF). Small aliquots were taken at various times (days 14, 17, 19, 22, and 25) from the cultures and were saved for later analysis by reverse transcriptase polymerase chain reaction (RT-PCR).
On day 14, the media was changed for the two groups of cells (10% FCS) in each population (control and sample). On day 17, the media was changed again.
On day 19, adherent cells were gently blown off by pipetting, then trypsinized and resuspended in 10% FCS in bacterial petri dish suspension cultures. On days 22 and 25, the remaining cells were collected and a portion retained for RT-PCR analysis.
All culturing from day 1 forward was performed in 25 millimolar (mM) glucose (high glucose) until after day 19, when it was changed to 5.5 millimolar glucose (lower glucose) The glucose concentrations ranged from 30 mM to 10 mM on the high end and 0.5 mM-5 mM on the low end.
Total RNA from each aliquot collected above was purified as instructed with a Qiagen RNeasy® Mini purification kit (obtained commercially from Qiagen Inc.). The presence of specific RNA transcripts (i.e. insulin) was determined by RT-PCR using gene specific oligonucleotide primers as instructed with a Qiagen® OneStep RT-PCR kit (obtained commercially from Qiagen Inc.). Total RNA was prepared from cultures of differentiating ES cells. RT-PCR analyses were performed with appropriate oligonucleotide primers (INS-insulin) or the pancreatic specific product amylase (AML).

[1] = Ex. 10, lane 5, 1 μM retinoic acid days 3 to 7, day 25, glucose 5.5 mM

For `CC1=C(/C=C/C(C)=C/C=C/C(C)=C/C(=O)O)C(C)(C)CCC1` [retinoic acid], the “Insulin protein in embryoid bodies by specific antibody staining” value (embryoid bodies) was “produce insulin”, the “Abundance of Insulin RT-PCR Product (INS)” value (embryonic stem cells; Ex. 9, lane 4, 1 μM retinoic acid days 3 to 7, day 22, glucose 5.5 mM) was “+” and the “Abundance of Amylase RT-PCR Product (AML)” value (embryonic stem cells; [1]) was “−”. For the same molecule, the “Abundance of Insulin RT-PCR Product (INS)” value (embryonic stem cells; [1]) was “−” and the “Formation of insulin-producing cells (correctly sized insulin-specific RT-PCR band)” value (embryonic stem cells; stem cells treated with retinoic acid, aliquots at days 14, 17, 19 and 22, FIG. 1) was “insulin-producing cells resulted”.

Reference: patent US20030032183A1, “Stem cell differentiation” (priority 2001, published 2003)
